Where two headings read alike, the source gives them in different places.
Experiments:
[1] = Ocular distribution of CDO in rats, single dose topical ocular vs. oral; type: in vivo, Sprague Dawley (SD) rat; set-up: key to CDO concentrations Retina / CDO concentrations Optic nerve: —: non-detectable
Protocol: In Sprague Dawley (SD) rat, weighing approximately 200 g, CDO was administered by topical ocular instillation (10 μl/eye) at 10 mg/ml (composition 2 of Example 1), at 100 mg/ml (composition 5 of Example 1) or by oral gavage at 50 mg/kg, at 200 mg/kg or at 750 mg/kg in aqueous solution (from compositions 1, 3 and 4, respectively, of Example 1). At 15, 60, 180 and 360 minutes post-administration, animals were euthanized and plasma and ocular tissues including sclera, cornea, retina, vitreous humour/lens and optic nerve were collected.
(§1) Bioanalysis of CDO was performed depending on the type of matrix. In the case of plasma, proteins were precipitated using methanol. In the case of tissues, samples were grinded in a Mini Bead Beater using zirconium beads and methanol/water (1:1) (v/v) as solvent. After centrifugation, samples were analyzed by UPLC-MS/MS.
(§2) Chromatographic separation was carried out using an Acquity CSH Fluoro Phenyl column (1.7 μm, 50×2.1 mm). Mobile phase consisted of a gradient using 0.1% formic acid in water and acetonitrile from 5% to 45% in 4.5 min at a flow rate of 0.6 ml/min.
(§3) With regard to the mass spectrometric detection, the electrospray ionization source worked to record negative ions. Multiple Reaction Monitoring (MRM) acquisition mode of the deprotonated molecular ions was performed. The transition monitored for CDO was m/z 189.0→80.1 with a cone voltage of 45 V and collision energy of 25 eV.

[2] = Ocular distribution of CDO in rabbits, single dose topical ocular vs. oral; type: in vivo, New Zealand White rabbit; details: for concentration at 0.25 h / concentration at 1 h / concentration at 3 h / concentration at 6 h: New Zealand White
Protocol: In New Zealand White rabbit, weighing approximately 1.8 kg, CDO was administered by topical ocular instillation (33 μl/eye) at 10 mg/ml (composition 2 of Example 1), at 100 mg/ml (composition 5 of Example 1) or by oral gavage at 25 mg/kg in aqueous solution (from composition 1 of Example 1). At 15, 60, 180 and 360 minutes post-administration, animals were euthanized and plasma and ocular tissues including retina/choroid and optic nerve were collected.
as §1, §2, §3

[3] = system: diabetic rats induced by streptozotocin; experiment: Retinal vascularity (Evans Blue staining) in diabetic retinopathy model induced by streptozotocin; type: in vivo, SD male rats; details: diabetic rats (group III), CDO 10 mg/ml topical 10 μl/eye TID 28 days
Protocol: Diabetes was induced in SD male rats by single intraperitoneal injection of streptozotocin (STZ) at 60 mg/kg body weight in citrate buffer (pH 4.5). Seven days after STZ administration, blood glucose was measured and the level of 250 mg/dl was considered the threshold value to consider diabetes induction. Ophthalmic treatment with CDO at 10 mg/ml (topical instillation of 10 μl/eye) was initiated once hyperglycemia was confirmed and continued for 28 days three times a day (TID). Rats were randomly divided in 3 groups: I. Control (non-diabetic), II. Diabetic rats with no treatment and III. Diabetic rats with CDO at 10 mg/ml.
At day 29 CDO was instilled a single time at 10 mg/ml in the group III, rats were euthanized and retinas were collected 15 minutes post-administration.
Retinal vascularity was observed by Evans Blue (EB) staining, based on the ability of EB to bind serum albumin immediately after intravenous injection. Thus Evans Blue 3% was injected through the tail vein at 1 ml/kg at 60 minutes before euthanasia at day 29. Eyeballs were fixed in paraformaldehyde 4%. Retinas were immediately after dissected and mounted in slides and observed by fluorescence microscopy.

[4] = rat, oral 50 mg/Kg = 10 mg, 0.25 h
[5] = rat, oral 50 mg/Kg = 10 mg, 1 h
[6] = rat, topical eye 10 mg/ml (eye drop of 10 μl) = 0.1 mg, 3 h
[7] = optic nerve, rabbit, Oral 25 mg/Kg = 45 mg, read-out: CDO μg/g tissue Optic nerve
[8] = optic nerve, rabbit, Topical eye administration 10 mg/ml = 0.3 mg, read-out: CDO μg/g tissue Optic nerve
[9] = optic nerve, rabbit, Topical eye administration 100 mg/ml = 3.3 mg, read-out: CDO μg/g tissue Optic nerve
[10] = retina/choroid, rabbit, Oral 25 mg/Kg = 45 mg, read-out: CDO μg/g tissue Retina/Choroid
[11] = retina/choroid, rabbit, Topical eye administration 10 mg/ml = 0.3 mg, read-out: CDO μg/g tissue Retina/Choroid
[12] = retina/choroid, rabbit, Topical eye administration 100 mg/ml = 3.3 mg, read-out: CDO μg/g tissue Retina/Choroid

`O=S(=O)(O)c1cc(O)ccc1O` [CDO, Calcium dobesilate monohydrate] showed a concentration at 3 h ([1]; Sprague-Dawley, plasma, rat, topical eye 10 mg/ml (eye drop of 10 μl) = 0.1 mg, 3 h, read-out: CDO concentrations Plasma) of 80 ng/g, a concentration at 0.25 h ([1]; Sprague-Dawley, plasma, rat, topical eye 100 mg/ml (eye drop of 10 μl) = 1 mg, 0.25 h, read-out: CDO concentrations Plasma) of 220 ng/g and a concentration at 1 h ([1]; Sprague-Dawley, plasma, rat, topical eye 100 mg/ml (eye drop of 10 μl) = 1 mg, 1 h, read-out: CDO concentrations Plasma) of 370 ng/g. The concentration at 3 h ([1]; Sprague-Dawley, plasma, rat, topical eye 100 mg/ml (eye drop of 10 μl) = 1 mg, 3 h, read-out: CDO concentrations Plasma) was 280 ng/g, the concentration at 1 h ([1]; Sprague-Dawley, retina/choroid, rat, topical eye 100 mg/ml (eye drop of 10 μl) = 1 mg, 1 h, read-out: CDO concentrations Retina/Choroid) was 1520 ng/g and the concentration at 3 h ([1]; Sprague-Dawley, retina/choroid, rat, topical eye 100 mg/ml (eye drop of 10 μl) = 1 mg, 3 h, read-out: CDO concentrations Retina/Choroid) was 1570 ng/g. The “CDO amounts in target tissues (optic nerve and retina choroids) 6 hours after topical ocular administration” value ([1]; rat, 6 hours after topical ocular administration) was “could be detected”, the “CDO concentrations Optic nerve” value [1, 4] was “—” and the “CDO concentrations Retina” value [1, 4] was “—”. For the same molecule, the “CDO concentrations Optic nerve” value [1, 5] was “—”, the “CDO concentrations Retina” value [1, 5] was “—” and the “CDO concentrations Retina” value ([1]; rat, oral 50 mg/Kg = 10 mg, 3 h) was “—”. The “CDO concentrations Retina” value ([1]; rat, oral 50 mg/Kg = 10 mg, 6 h) was “—”, the “amount of CDO orally administered showing equivalent levels in retina to 1 mg CDO instilled onto the eye surface” value ([1]; rat, single dose) was 40 to 150 mg and the “CDO concentrations Retina” value ([1]; rat, topical eye 10 mg/ml (eye drop of 10 μl) = 0.1 mg, 1 h) was “—”. The “CDO concentrations Optic nerve” value [1, 6] was “—”, the “CDO concentrations Retina” value [1, 6] was “—” and the “CDO concentrations Retina” value ([1]; rat, topical eye 10 mg/ml (eye drop of 10 μl) = 0.1 mg, 6 h) was “—”. The “plasmatic levels after topical eye administration” value ([1]; rats, topical eye administration) was “low plasmatic levels”, the concentration at 0.25 h [2, 7] was 0.74 µg/g and the concentration at 1 h [2, 7] was 1.61 µg/g. The concentration at 3 h [2, 7] was 0.49 µg/g, the concentration at 6 h [2, 7] was 0.1 µg/g and the concentration at 0.25 h [2, 8] was 0.23 µg/g. The concentration at 1 h [2, 8] was 0.76 µg/g, the concentration at 3 h [2, 8] was 0.65 µg/g and the concentration at 6 h [2, 8] was 0.45 µg/g. The concentration at 0.25 h [2, 9] was 14.4 µg/g, the concentration at 1 h [2, 9] was 22.9 µg/g and the concentration at 3 h [2, 9] was 4.5 µg/g. For the same molecule, the concentration at 6 h [2, 9] was 1.92 µg/g, the concentration at 0.25 h [2, 10] was 0.43 µg/g and the concentration at 1 h [2, 10] was 0.95 µg/g. The concentration at 3 h [2, 10] was 0.28 µg/g, the concentration at 6 h [2, 10] was 0.12 µg/g and the concentration at 0.25 h [2, 11] was 0.27 µg/g. The concentration at 1 h [2, 11] was 0.29 µg/g, the concentration at 3 h [2, 11] was 0.16 µg/g and the concentration at 6 h [2, 11] was 0.11 µg/g. The concentration at 0.25 h [2, 12] was 7.88 µg/g, the concentration at 1 h [2, 12] was 6.41 µg/g and the concentration at 3 h [2, 12] was 3.47 µg/g. For the same molecule, the concentration at 6 h [2, 12] was 1.14 µg/g, the “CDO amounts in target tissues (optic nerve and retina choroids) 6 hours after topical ocular administration” value ([2]; rabbit, 6 hours after topical ocular administration) was “could be detected” and the “values of CDO in target tissues, topical vs. single oral dose” value ([2]; rabbits, topical eye single low dose 0.3 mg vs oral 45 mg) was “equivalent to those of a single oral dose (45 mg)”. The “levels of the drug in target tissues, topical vs. single oral dose” value ([2]; rabbits, topical single dose CDO 3.3 mg vs single oral dose) was “higher levels of the drug are detected than those obtained following a single oral dose” and the “Retinal vascularity (fluorescence microscopy, Evans Blue)” value [3] was “well preserved retinas, with well-defined vessels with no evidence of vascular damages”.

Reference: patent publication US20200390729A1, “OPHTHALMIC TOPICAL COMPOSITION COMPRISING DOBESILIC ACID FOR TREATING DISEASES OF THE POSTERIOR SEGMENT OF THE EYE” (LABORATORIOS SALVAT, S.A., priority 2017, published 2020)
